{"source": "paper PMC3513969", "about": "(Evidence-based Complementary and Alternative Medicine : eCAM, 2012)", "key": {"[1]": {"assay": "Single dose escalation and multiple dosing pharmacokinetic study of LipoCol Forte", "details": "for AUC0–12/dose / AUC0–inf/dose / CL/F / Cmax/dose / AUC(0-t) / AUC(0-inf) / Cmax / MRT / half-life / Tmax / Vd/F: fed, mean ± SD, n = 14; for AUC(0-t) / AUC(0-inf) / Cmax / MRT / half-life / Tmax / Vd/F: human, plasma, oral; for AUC(0-t): AUC0–12, healthy subjects; for AUC(0-inf): AUC0–inf; for half-life: T1/2, healthy subjects", "quoted_text": "A high fat breakfast (including two eggs fried in butter, two strips of bacon, two slices of toast with butter, four ounces of hash brown potatoes, and eight ounces of whole milk) was provided 30 min before dosing. All doses were administered with 240 mL of water. […] A high fat breakfast or dinner was served 30 min before dosing. One capsule was administered with 240 mL of water. […] Within 30 min of collection, the samples were centrifuged at 2,600 g for 10 minutes at 4°C and the plasma transferred to labeled polypropylene tubes containing 50 μL of 17% phosphoric acid and stored at −80°C until analysis.\nThe pharmacokinetics were characterized, when appropriate, by the peak concentration in the plasma (C max⁡), time to reach the peak concentration (T max⁡), area under the plasma concentration versus time curve from time zero to the time of the last quantifiable concentration (AUC0−t), AUC from time zero to the time extrapolated to infinity (AUC0−inf⁡), half-life (T 1/2), mean residence time (MRT), apparent clearance (CL/F), and apparent volume of distribution (V d/F)."}, "[2]": {"assay": "Pharmacokinetic interaction between gemfibrozil and LipoCol Forte", "type": "in vivo, human", "details": "for CL/F: mean ± SD, n = 13", "protocol": "The volunteers were fasted overnight before dosing and a high fat breakfast or dinner was served 0.5 h after administration of gemfibrozil. […] Blood samples were prepared as described in the previous section (dose-escalation study)."}, "P-gp": {"target": "P-gp (Homo sapiens, UniProt P08183)", "sequence (P08183 whole entry)": "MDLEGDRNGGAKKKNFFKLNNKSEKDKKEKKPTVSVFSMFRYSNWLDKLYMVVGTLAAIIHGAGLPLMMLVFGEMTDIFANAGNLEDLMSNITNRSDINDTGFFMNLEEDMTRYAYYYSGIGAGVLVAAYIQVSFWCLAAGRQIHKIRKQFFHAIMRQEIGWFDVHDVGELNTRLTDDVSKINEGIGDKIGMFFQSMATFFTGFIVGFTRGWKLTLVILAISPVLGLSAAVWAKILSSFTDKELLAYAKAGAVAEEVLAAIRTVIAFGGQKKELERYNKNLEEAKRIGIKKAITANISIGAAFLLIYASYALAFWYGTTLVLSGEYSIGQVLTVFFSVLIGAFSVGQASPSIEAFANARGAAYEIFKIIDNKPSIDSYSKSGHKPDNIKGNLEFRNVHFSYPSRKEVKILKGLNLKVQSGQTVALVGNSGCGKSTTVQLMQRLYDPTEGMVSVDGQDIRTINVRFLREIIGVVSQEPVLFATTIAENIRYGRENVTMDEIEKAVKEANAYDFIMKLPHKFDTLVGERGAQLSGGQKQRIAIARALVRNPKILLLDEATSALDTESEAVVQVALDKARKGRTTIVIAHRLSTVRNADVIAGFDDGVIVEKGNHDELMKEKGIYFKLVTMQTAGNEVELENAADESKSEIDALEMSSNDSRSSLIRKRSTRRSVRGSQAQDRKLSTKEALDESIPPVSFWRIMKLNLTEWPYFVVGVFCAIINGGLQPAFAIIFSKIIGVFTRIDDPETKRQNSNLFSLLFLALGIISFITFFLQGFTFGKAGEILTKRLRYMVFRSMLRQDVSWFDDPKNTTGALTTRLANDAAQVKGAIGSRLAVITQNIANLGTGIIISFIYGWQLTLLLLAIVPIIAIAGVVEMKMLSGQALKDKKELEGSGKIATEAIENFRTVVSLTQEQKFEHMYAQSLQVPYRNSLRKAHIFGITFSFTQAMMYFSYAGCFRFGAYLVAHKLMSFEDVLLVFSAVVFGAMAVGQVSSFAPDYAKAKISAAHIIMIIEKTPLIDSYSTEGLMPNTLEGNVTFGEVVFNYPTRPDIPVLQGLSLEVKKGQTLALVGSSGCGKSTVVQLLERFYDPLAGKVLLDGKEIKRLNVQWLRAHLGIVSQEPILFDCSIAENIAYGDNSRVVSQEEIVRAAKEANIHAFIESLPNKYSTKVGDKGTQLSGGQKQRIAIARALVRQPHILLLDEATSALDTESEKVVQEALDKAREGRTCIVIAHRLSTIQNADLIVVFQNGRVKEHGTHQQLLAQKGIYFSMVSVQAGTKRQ", "type": "cell-based", "details": "MDCK-MDR1 cells, 25 μM (extracts adjusted to 25 μM lovastatin)", "protocol": "MDCK-MDR1 cells (2.5 × 10^4 cells/cm^2) (from The Netherlands Cancer Institute) were cultured in polystyrene Nunclon multidishes under an atmosphere of 5% CO2/95% air. The minimal essential medium (MEM) (Invitrogen, CA, USA) contained 10% fetal bovine serum (Hyclone, UT, USA), 5.5 mM L-glutamine, 1.5 mg/mL of sodium bicarbonate, and 1 mM sodium pyruvate (all from Sigma, MO, USA), and 100 unit/mL of penicillin and 0.1 mg/mL of streptomycin (both from Invitrogen). […] The percentage of inhibition of P-gp activity and the IC50 values for P-gp inhibition were determined by the methods described by Rautio et al.."}, "[3]": {"details": "healthy subjects, multiple doses one LipoCol Forte capsule BID for 5 days"}, "[4]": {"details": "healthy subjects, single dose four LipoCol Forte capsules"}, "[5]": {"details": "healthy subjects, single dose one LipoCol Forte capsule"}, "[6]": {"details": "healthy subjects, single dose two LipoCol Forte capsules"}, "[7]": {"details": "1 LipoCol Forte capsule, multiple doses one LipoCol Forte capsule BID for 5 days"}, "[8]": {"details": "1 LipoCol Forte capsule, single dose one LipoCol Forte capsule"}, "[9]": {"details": "1 LipoCol Forte capsule, healthy subjects, multiple doses one LipoCol Forte capsule BID for 5 days"}, "[10]": {"details": "1 LipoCol Forte capsule, healthy subjects, single dose one LipoCol Forte capsule"}, "[11]": {"details": "2 LipoCol Forte capsules, single dose two LipoCol Forte capsules"}, "[12]": {"details": "2 LipoCol Forte capsules, healthy subjects, single dose two LipoCol Forte capsules"}, "[13]": {"details": "4 LipoCol Forte capsules, single dose four LipoCol Forte capsules"}, "[14]": {"details": "4 LipoCol Forte capsules, healthy subjects, single dose four LipoCol Forte capsules"}, "[15]": {"details": "human, plasma, oral, 1 LipoCol Forte capsule"}}, "data": [{"compound": "CC[C@H](C)C(=O)O[C@H]1C[C@@H](C)C=C2C=C[C@H](C)[C@H](CC[C@@H](O)C[C@@H](O)CC(=O)O)[C@H]21", "note": "[Lovastatin acid, lovastatin acid]", "values": [{"measurement": "AUC0–12/dose", "setting": "[1]; [3]", "result": "5.69 ± 1.70"}, {"measurement": "AUC0–inf/dose", "setting": "[1]; [3]", "result": "5.92 ± 1.70"}, {"measurement": "CL/F", "setting": "[1]; [3]", "result": "192.3 ± 63.7", "unit": "L/h"}, {"measurement": "Cmax/dose", "setting": "[1]; [3]", "result": "1.41 ± 0.57"}, {"measurement": "AUC0–12/dose", "setting": "[1]; [4]", "result": "6.94 ± 2.64"}, {"measurement": "AUC0–inf/dose", "setting": "[1]; [4]", "result": "7.42 ± 2.76"}, {"measurement": "CL/F", "setting": "[1]; [4]", "result": "150.2 ± 45.9", "unit": "L/h"}, {"measurement": "Cmax/dose", "setting": "[1]; [4]", "result": "1.59 ± 0.75"}, {"measurement": "AUC0–12/dose", "setting": "[1]; [5]", "result": "5.75 ± 2.30"}, {"measurement": "AUC0–inf/dose", "setting": "[1]; [5]", "result": "6.72 ± 2.85"}, {"measurement": "CL/F", "setting": "[1]; [5]", "result": "172.9 ± 68.1", "unit": "L/h"}, {"measurement": "Cmax/dose", "setting": "[1]; [5]", "result": "1.37 ± 0.72"}, {"measurement": "AUC0–12/dose", "setting": "[1]; [6]", "result": "6.94 ± 2.42"}, {"measurement": "AUC0–inf/dose", "setting": "[1]; [6]", "result": "7.50 ± 2.44"}, {"measurement": "CL/F", "setting": "[1]; [6]", "result": "145.7 ± 43.1", "unit": "L/h"}, {"measurement": "Cmax/dose", "setting": "[1]; [6]", "result": "1.56 ± 0.81"}, {"measurement": "Accumulation with multiple dosing", "setting": "[1]; healthy subjects, one LipoCol Forte capsule twice daily for 5 days", "result": "no accumulation"}, {"measurement": "Dose linearity of pharmacokinetic properties (AUC, Cmax)", "setting": "[1]; healthy subjects, single dose of 1, 2 or 4 LipoCol Forte capsules", "result": "linear"}, {"measurement": "AUC(0-t)", "setting": "[1]; [7]", "result": "32.4 ± 9.7", "unit": "ng·h/mL"}, {"measurement": "AUC(0-t)", "setting": "[1]; [8]", "result": "33 ± 13.1", "unit": "ng·h/mL"}, {"measurement": "AUC(0-inf)", "setting": "[1]; [9]", "result": "33.7 ± 9.7", "unit": "ng·h/mL"}, {"measurement": "AUC(0-inf)", "setting": "[1]; [10]", "result": "38.3 ± 16.2", "unit": "ng·h/mL"}, {"measurement": "Cmax", "setting": "[1]; [9]", "result": "8.04 ± 3.24", "unit": "ng/mL"}, {"measurement": "Cmax", "setting": "[1]; [10]", "result": "7.78 ± 4.12", "unit": "ng/mL"}, {"measurement": "MRT", "setting": "[1]; [9]", "result": "5.59 ± 1.15", "unit": "h"}, {"measurement": "MRT", "setting": "[1]; [10]", "result": "7.15 ± 3.3", "unit": "h"}, {"measurement": "half-life", "setting": "[1]; [7]", "result": "1.92 ± 0.34", "unit": "h"}, {"measurement": "half-life", "setting": "[1]; [8]", "result": "2.57 ± 1.74", "unit": "h"}, {"measurement": "Tmax", "setting": "[1]; [9]", "result": "4.36 ± 0.93", "unit": "h"}, {"measurement": "Tmax", "setting": "[1]; [10]", "result": "5.07 ± 1.59", "unit": "h"}, {"measurement": "Vd/F", "setting": "[1]; [9]", "result": "544 ± 241", "unit": "L"}, {"measurement": "Vd/F", "setting": "[1]; [10]", "result": "603 ± 337", "unit": "L"}, {"measurement": "AUC(0-t)", "setting": "[1]; [11]", "result": "79.1 ± 27.6", "unit": "ng·h/mL"}, {"measurement": "AUC(0-inf)", "setting": "[1]; [12]", "result": "85.4 ± 27.8", "unit": "ng·h/mL"}, {"measurement": "Cmax", "setting": "[1]; [12]", "result": "17.8 ± 9.21", "unit": "ng/mL"}, {"measurement": "MRT", "setting": "[1]; [12]", "result": "6.43 ± 1.77", "unit": "h"}, {"measurement": "half-life", "setting": "[1]; [11]", "result": "2.07 ± 0.68", "unit": "h"}, {"measurement": "Tmax", "setting": "[1]; [12]", "result": "5.14 ± 1.7", "unit": "h"}, {"measurement": "Vd/F", "setting": "[1]; [12]", "result": "438 ± 189", "unit": "L"}, {"measurement": "AUC(0-t)", "setting": "[1]; [13]", "result": "158 ± 60.2", "unit": "ng·h/mL"}, {"measurement": "AUC(0-inf)", "setting": "[1]; [14]", "result": "169 ± 62.9", "unit": "ng·h/mL"}, {"measurement": "Cmax", "setting": "[1]; [14]", "result": "36.2 ± 17.1", "unit": "ng/mL"}, {"measurement": "MRT", "setting": "[1]; [14]", "result": "6.39 ± 1.43", "unit": "h"}, {"measurement": "half-life", "setting": "[1]; [13]", "result": "2.04 ± 0.68", "unit": "h"}, {"measurement": "Tmax", "setting": "[1]; [14]", "result": "5 ± 1.52", "unit": "h"}, {"measurement": "Vd/F", "setting": "[1]; [14]", "result": "456 ± 265", "unit": "L"}, {"measurement": "Effect of concomitant gemfibrozil on pharmacokinetic parameters (AUC, Cmax)", "setting": "[2]; healthy subjects, one LipoCol Forte capsule, gemfibrozil 600 mg twice daily", "result": "significantly increased"}, {"measurement": "CL/F", "setting": "[2]; healthy subjects, single dose one LipoCol Forte capsule alone", "result": "218.4 ± 108.6", "unit": "L/h"}, {"measurement": "CL/F", "setting": "[2]; healthy subjects, single dose one LipoCol Forte capsule with coadministration of 600 mg gemfibrozil twice daily", "result": "99.9 ± 48.4", "unit": "L/h"}, {"measurement": "AUC(0-inf)", "setting": "[2]; [15]", "result": "33.1 ± 18.2", "unit": "ng·h/mL"}, {"measurement": "Cmax", "setting": "[2]; [15]", "result": "6.79 ± 3.78", "unit": "ng/mL"}, {"measurement": "MRT", "setting": "[2]; [15]", "result": "6.19 ± 1.38", "unit": "h"}, {"measurement": "Vd/F", "setting": "[2]; [15]", "result": "644 ± 586", "unit": "L"}, {"measurement": "half-life", "setting": "[2]; [15]", "result": "1.94 ± 0.75", "unit": "h"}, {"measurement": "AUC(0-t)", "setting": "[2]; human, plasma, oral, 1 LipoCol Forte capsule, read-out: AUC0–12", "result": "31.1 ± 16.5", "unit": "ng·h/mL"}, {"measurement": "Tmax", "setting": "[2]; human, plasma, oral, 1 LipoCol Forte capsule, read-out: Tmax", "result": "4.85 ± 1.14", "unit": "h"}]}, {"compound": "C/C=C/C[C@@H](C)C(=O)[C@H]1C(=O)N[C@@H](C(C)C)C(=O)N(C)CC(=O)N(C)[C@@H](CC(C)C)C(=O)N[C@@H](C(C)C)C(=O)N(C)[C@@H](CC(C)C)C(=O)N[C@@H](C)C(=O)N[C@H](C)C(=O)N(C)[C@@H](CC(C)C)C(=O)N(C)[C@@H](CC(C)C)C(=O)N(C)[C@@H](C(C)C)C(=O)N1C", "note": "[PSC833]", "values": [{"measurement": "Inhibition of P-gp activity (digoxin uptake)", "setting": "P-gp", "result": "highest inhibition"}]}]}
